US20260354380A1, “PYRAZOLO PESTICIDAL COMPOUNDS” (BASF SE, priority 2022, published 2026)
Read-outs that look alike come from different tables or passages of the source.

Key:
Assay type in all cases: in vivo
Dichromothrips corbetti = assay: Action on Orchid Thrips (Dichromothrips corbetti); conditions: for mortality at 300 ppm: Dichromothrips corbetti, read-out: mortality in comparison with untreated controls
Method: Example B2: Action on Orchid Thrips (Dichromothrips corbetti)
Dichromothrips corbetti adults used for bioassay were obtained from a colony maintained continuously under laboratory conditions. For testing purposes, the test compound is diluted in a 1:1 mixture of acetone: water (vol: vol), plus Kinetic® HV at a rate of 0.01% v/v.
Thrips potency of each compound was evaluated by using a floral-immersion technique. All petals of individual, intact orchid flowers were dipped into treatment solution and allowed to dryin Petri dishes. Treated petals were placed into individual re-sealable plastic along with about 20 adult thrips. All test arenas were held under continuous light and a temperature of about 28 °C for duration of the assay. After 3 days, the numbers of live thrips were counted on each petal. The percent mortality was recorded 72 hours after treatment.

Spodoptera eridania = assay: Action on Southern Armyworm (Spodoptera eridania), 2nd Instar Larvae; conditions: for mortality at 300 ppm: Spodoptera eridania, 96 h, read-out: mortality in comparison with untreated controls
In short: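 Compounds in 50% acetone/water with 0.01% nonionic surfactant sprayed electrostatically onto Lima bean plants at 1st true leaf stage. After drying, 10–11 2nd-instar larvae bagged with each pot, kept about 25 °C, 20–40% RH. Mortality and reduced feeding scored at 4 days vs untreated plants.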

Aedes aegypti = assay: whole plant or invertebrate; conditions: for mortality in comparison with untreated controls: 800 ppm, larvae, 2 days; for mortality at 800 ppm: Aedes aegypti, 48 h, read-out: mortality in comparison with untreated controls
In short: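 Freshly hatched larvae (5-15 per well) were held in tap water, and compounds formulated in 25% DMSO/water were sprayed onto diet at several concentrations in duplicate. Larval mortality was scored visually after 2 days at 28±1 °C, 80±5% RH.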

Plutella xylostella [1] = assay: Action on Diamond Back Moth (Plutella xylostella), microtiter plates, insect diet, eggs; conditions: 800 ppm; egg and larval mortality; 5 days
In short: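 Diet in 96-well plates with 15–25 P. xylostella eggs, sprayed with compound formulated in 75% water/25% DMSO at several concentrations, two replicates; mixtures combined in equal volumes. Incubated 5 days at 28±1 °C, 80±5% RH, then egg and larval mortality scored visually.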

Heliothis virescens = assay: Action on Tobacco Budworm (Heliothis virescens); conditions: for mortality at 800 ppm: Heliothis virescens, 120 h, read-out: mortality in comparison with untreated controls
In short: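 Compounds in 25% DMSO/75% water were sprayed at several concentrations onto insect diet in microtiter wells holding 15-25 eggs, two replications. After 5 days at about 28±1 °C and 80±5% RH, egg and larval mortality was scored visually.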

Anthonomus grandis = assay: Action on Boll Weevil (Anthonomus grandis); conditions: for mortality at 800 ppm: Anthonomus grandis, 120 h, read-out: mortality in comparison with untreated controls
In short: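 Compounds in 75:25 water:DMSO sprayed at several concentrations onto insect diet in microtiter wells holding 5-10 eggs, two replicates. Plates kept 5 days at about 25±1 °C and 75±5% RH; egg and larval mortality scored visually.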

Plutella xylostella [2] = assay: Action on Diamond Back Moth (Plutella xylostella), cabbage leaf dip, 3rd instar larvae; conditions: for mortality at 300 ppm: Plutella xylostella, foliar, read-out: mortality in comparison with untreated controls
In short: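 Cabbage leaves dipped in compound solution (1:1 water:acetone, 0.01% v/v surfactant), air-dried, then infested with ten 3rd-instar larvae in petri dishes on moist filter paper. Mortality scored at 72 h after treatment; feeding damage rated on a 0–100% scale.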

[3] = 300 ppm, adults, 72 hours after treatment
[4] = 300 ppm, 2nd instar larvae, 4 days after treatment
[5] = 800 ppm, egg and larval mortality, 5 days
[6] = 300 ppm, 3rd instar larvae, 72 hours after treatment

Structure (SMILES) | mortality in comparison with untreated controls (Dichromothrips corbetti; [3]) | mortality in comparison with untreated controls (Spodoptera eridania; [4]) | mortality in comparison with untreated controls (Aedes aegypti) | mortality in comparison with untreated controls (Plutella xylostella [1]) | mortality in comparison with untreated controls (Heliothis virescens; [5]) | mortality in comparison with untreated controls (Anthonomus grandis; [5]) | mortality in comparison with untreated controls (Plutella xylostella [2]; [6]) | also measured
Cc1ccc(C(C)C)c(N2C(=O)CS/C2=N\C(=O)Nc2cc(F)c(-n3nc(C)c(NC(=O)c4ccc(OC(F)(F)F)cc4)c3C)cc2Cl)c1 [Example C-104] | at least 75% | at least 75% | at least 50% | at least 75% | at least 75% | at least 75% | – | –
Cc1ccc(C(C)C)c(N2C(=O)CSC2=NC(=O)Nc2ccc(-n3nc(C)c(N(CC4CC4)C(=O)c4ccc(OC(F)(F)F)cc4)c3C)cc2Cl)c1 [Example C-46] | at least 75% | at least 75% | at least 50% | at least 75% | at least 75% | at least 75% | – | –
Cc1ccc(C(C)C)c(N2C(=O)CSC2=NC(=O)Nc2ccc(-n3nc(C)c(NC(=O)c4ccc(OC(F)(F)F)cc4)c3C)c(Cl)c2Cl)c1 [Example C-123] | at least 75% | at least 75% | at least 50% | at least 75% | at least 75% | at least 75% | – | –
Cc1ccc(C(C)C)c(NC(=S)NC(=O)Nc2ccc(-n3nc(C)c(NC(=O)c4ccc(OC(F)(F)F)cc4)c3C)cc2Cl)c1 [Example C-125] | at least 75% | at least 75% | at least 50% | at least 75% | at least 75% | at least 75% | – | –
Cc1ccc(C(C)C)c(N2C(=O)CS/C2=N\C(=O)Nc2ccc(-n3nc(C)c(NC(=O)c4ccc(OC(F)(F)F)cc4)c3C)cc2Cl)c1 [Example C-4, N-[1-[3-chloro-4-[[(Z)-[3-(2-isopropyl-5-methyl-phenyl)-4-oxo-thiazolidin-2-ylidene]carbamoyl]amino]phenyl]-3,5-dimethyl-pyrazol-4-yl]-4-(trifluoromethoxy)benzamide] | – | – | – | – | – | – | – | mortality at 300 ppm (Dichromothrips corbetti; 72 h): ≥ 75%; mortality at 300 ppm (Spodoptera eridania): ≥ 75%; mortality at 800 ppm (Aedes aegypti): ≥ 50%; mortality at 800 ppm (Heliothis virescens): ≥ 75%; mortality at 300 ppm (Plutella xylostella [2]; 72 h): ≥ 75%; mortality at 800 ppm (Anthonomus grandis): ≥ 75%
Cc1ccc(C(C)C)c(N2C(=O)CS/C2=N\C(=O)Nc2ccc(-n3cc(NC(=O)c4ccc(OC(F)(F)F)cc4)c(C)n3)cc2C)c1 [Example C-1, N-[1-[4-[[(Z)-[3-(2-isopropyl-5-methyl-phenyl)-4-oxo-thiazolidin-2-ylidene]carbamoyl]amino]-3-methyl-phenyl]-3-methyl-pyrazol-4-yl]-4-(trifluoromethoxy)benzamide] | – | – | – | – | – | – | – | mortality at 300 ppm (Dichromothrips corbetti; [3]): ≥ 75%; mortality at 300 ppm (Spodoptera eridania; [4]): ≥ 75%; mortality at 800 ppm (Aedes aegypti): ≥ 50%; mortality at 800 ppm (Heliothis virescens; [5]): ≥ 75%; mortality at 300 ppm (Plutella xylostella [2]; [6]): ≥ 75%; mortality at 800 ppm (Anthonomus grandis; [5]): ≥ 75%
Cc1ccc(C(C)C)c(N/C(=N/C(=O)Nc2ccc(-n3nc(C)c(NC(=O)c4ccc(OC(F)(F)F)cc4)c3C)cc2Cl)SCOC(=O)C(C)C)c1 [Example C-130] | at least 75% | – | at least 50% | at least 75% | at least 75% | at least 75% | – | –
Cc1nn(-c2ccc(NC(=O)N=C3SCC(=O)N3c3cc(C#N)ccc3C(C)C)cc2)cc1NC(=O)c1ccc(OC(F)(F)F)cc1 [Example C-10] | at least 75% | at least 75% | at least 50% | – | at least 75% | at least 75% | at least 75% | –
Cc1ccc(C(C)C)c(N2C(=O)CS/C2=N\C(=O)Nc2ccc(-n3cc(NC(=O)c4ccc(F)c(F)c4)c(C)n3)cc2)c1 [Example C-25] | at least 75% | at least 75% | at least 50% | – | at least 75% | at least 75% | at least 75% | –
Cc1ccc(C(C)C)c(N2C(=O)CS/C2=N\C(=O)Nc2ccc(-n3nc(C)c(NC(=O)c4ccc(OC(F)(F)F)cc4)c3C)cc2C)c1 [Example C-18] | at least 75% | at least 75% | at least 50% | – | at least 75% | at least 75% | at least 75% | –
Cc1nn(-c2ccc(NC(=O)/N=C3\SCC(=O)N3c3cc(C4CC4)ccc3C(C)C)c(F)c2)cc1NC(=O)c1ccc(OC(F)(F)F)cc1 [Example C-7] | at least 75% | at least 75% | at least 50% | – | at least 75% | at least 75% | at least 75% | –
Cc1nn(-c2ccc(NC(=O)/N=C3\SCC(=O)N3c3cc(N(C)C)ccc3C(C)C)cc2)c(C)c1NC(=O)c1ccc(OC(F)(F)F)cc1 [Example C-17] | at least 75% | at least 75% | at least 50% | – | at least 75% | at least 75% | at least 75% | –
Cc1ccc(C(C)C)c(N2C(=O)CS/C2=N\C(=O)Nc2ccc(-n3nc(C)c(N(C)C(=O)c4ccc(OC(F)(F)F)cc4)c3Cl)cc2)c1 [Example C-3, N-[5-chloro-1-[4-[[(Z)-[3-(2-isopropyl-5-methyl-phenyl)-4-oxo-thiazolidin-2-ylidene]carbamoyl]amino]phenyl]-3-methyl-pyrazol-4-yl]-N-methyl-4-(trifluoromethoxy)benzamide] | – | – | – | – | – | – | – | mortality at 300 ppm (Dichromothrips corbetti; 72 h): ≥ 75%; mortality at 300 ppm (Spodoptera eridania): ≥ 75%; mortality at 800 ppm (Aedes aegypti): ≥ 50%; mortality at 800 ppm (Heliothis virescens): ≥ 75%; mortality at 300 ppm (Plutella xylostella [2]; 72 h): ≥ 75%; mortality at 800 ppm (Anthonomus grandis): ≥ 75%
CCN(C(=O)c1ccc(OC(F)(F)F)cc1)c1c(C)nn(-c2ccc(NC(=O)/N=C3\SCC(=O)N3c3cc(C)ccc3C(C)C)c(Cl)c2)c1C [Example C-97] | at least 75% | at least 75% | at least 50% | – | at least 75% | at least 75% | at least 75% | –
